The values that follow come from patent US6372740B1, “2-aryl-8-oxodihydropurine derivative, process for the producing the same, medicinal compositions containing the same, and intermediates thereof” (Dainippon Pharmaceutical Co., Ltd., priority 1997, dated 2002).

Series [1] has as its system mice (stay in light compartment). The experiment in a line: Light and dark box test (anti-anxiety effect). The format is in vivo. As to conditions: Mus musculus, po, 0.5 h, male Std-ddY mice, 30 minutes before test, Dunnett test 5%, read-out: Anti-anxiety effect MED (minimum effective dose). The text has this: Experiment 2: Light and Dark Box Test (Anti-anxiety Effect)
Anti-anxiety effect of test compounds was examined in a box with light and dark compartments according to the method of Crawley, J. and Goodwin, F. K. [cf., Pharmacol. Biochem. Behav., 13, 167-170 (1980)] with slight modification.
Light and dark box test is a useful, simple and handy method for behaviorally and pharmacologically examining anti-anxiety effect of the drugs, by utilizing the habit of rodents such as mice and rats, etc. which prefer to stay in a dark place, and regarding as positive drug effect the increase of the relative stay of the animals in the light compartment which is an uncomfortable place for the animals. A number of drugs such as cholecystokinin B type receptor antagonists and benzodiazepine drugs, show positive effect in this test.
Light and dark box test was carried out using the test box device (35×17×15 cm) which comprises: a light compartment (20×17×15 cm) consisting of transparent acrylic plates and highly illuminated by an incandescent lamp (1,700 lux); a dark compartment (15×17×15 cm) being made of black acrylic plates connected to the light compartment; and at the boundary of compartments, an opening (4.4×5.0 cm) in which mice can go through freely between two compartments.
Male mice of Std-ddY strain weighing 25-30 g were used in a group of 10. Each trial was started by placing a mouse in the center of the light compartment 30 minutes after oral administration of a test compound, and the time spent by the mouse in the light compartment during a 5 minute observation period was measured, and the rate of the stay of mice in the light compartment to the whole time spent in the experiment was calculated (rate of light compartment stay, %).
The anti-anxiety effect of the test compound was represented by the minimum effective dose (MED) at which the increasing rate of the relative stay in the light compartment was regarded as statistically significant (Dunnett test, significance level: 5%). 4.

A further series relates to mice (lethality). Nature of the series: Acute toxicity. Type of series: in vivo, mouse. As to conditions: male Std-ddY mice, oral 2000 mg/kg, observed for 7 days. How it is done:
Experiment 4: Acute Toxicity
Male mice of Std-ddY strain weighing 25-30 g were used in a group of 10 animals for examining on the compound of Example 1. A test compound was suspended in 0.5% tragacanth and administered orally to the mice at a dose of 2000 mg/kg.

The next series has as its target T1, BZω3 receptor (Rattus norvegicus, UniProt P16257).
T1 construct: from tissue; host or cells: rat (Wistar) kidney membrane fraction
The experiment in a line: BZω3 (peripheral) benzodiazepine receptor binding assay, [3H] 4'-chlorodiazepam (Ro 5-4864). Conditions: rat kidney membrane, [3H] Ro 5-4864 0.5 nM, 150 minutes at 0° C.; read-out: ω3 IC50. How it is done:
Experiment 1: Central (ω1,ω2) and Peripheral (ω3) Benzodiazepine Receptor Binding Assays
BZω1 and BZω2 receptor binding assays and the preparation of receptor membrane fractions therefor were carried out according to the method of Stephens, D. N. et al. [cf., J. Pharmacol. Exp. Ther., 253, 334-343 (1990)], and BZω3 receptor binding assay and the preparation of receptor membrane fraction therefor were done according to the method of Schoemaker, H. [cf, J. Pharmacol. Exp. Ther., 225, 61-69 (1983)] each with slight modification.
Receptor membrane fractions for ω1, ω2 and ω3 were prepared from the cerebellum (ω1), spinal cord (ω2) or kidney (ω3) in 7-8 week old male rats of Wistar strain, respectively, by the procedure described below.
After the cerebellum or spinal cord was homogenized with 20 volumes of ice-cold 50 mM Tris-citrate buffer (pH 7.1), the homogenate was centrifuged for 15 minutes at 40,000 g. The pellet obtained was washed 4 times by the same procedure, and frozen and stored for 24 hours at −60° C. The resulting pellet, after being thawed, washed with the buffer and centrifuged, was suspended in the buffer I for the binding assay (50 mM Tris-HCl buffer containing 120 mM NaCl, 5 mM KCl, 2 mM CaCl2 and 1 mM MgCl2; pH 7.4) and the suspension thus obtained (containing 1 g wet tissue/40 ml) was used for the BZω1 and BZω2receptor binding assays. On the other hand, the kidney was homogenized with 20 volumes of the ice-cold buffer II for the binding assay (50 mM Na-K phosphate buffer containing 100 mM NaCl; pH 7.4), and the mixture was filtered through 4 sheets of gauze, and centrifuged for 20 minutes at 40,000 g. The pellet obtained was suspended in the buffer II and the suspension (containing 1 g wet tissue/100 ml) was used for the binding assay as BZω3 receptor membrane source.
[^3H] Flumazenil (Ro 15-1788) (final concentration: 0.3 nM for ω1, and 1 nM for ω2) and flunitrazepam (final concentration: 10 μM) were used for the BZω1 or BZω2 receptor binding assays as the isotope-labeled and unlabeled ligands, respectively. For the BZω3 receptor binding assay, [^3H] 4′-chlorodiazepam (7-chloro-1,3-dihydro-1-methyl-5-(4-chlorophenyl)-2H-1,4-diazepin-2-one) (Ro 5-4864) (final concentration: 0.5 nM) and diazepam (final concentration: 100 μM) were used as the isotope-labeled and unlabeled ligands, respectively. Incubation was performed for 30 minutes at 37° C. in the BZω1 or BZω2 receptor binding assays, and for 150 minutes at 0° C. in the BZω3 receptor binding assay. The BZω1 or BZω2 receptor binding assays were carried out in the presence of bicuculline (final concentration: 100 μM).
The binding assay was performed by the following procedure. After adding each test compound at certain known concentrations, a [^3H] ligand, and the buffer I or II to each test tube, each assay was started by addition of membrane preparation (total volume of 1 ml). After incubation, the assay was terminated by filtration with suction through a Whatman GF/B glass fiber filter using a cell harvester (Brandel, USA). The filters were rapidly washed 3 times with 5 ml of ice-cold 50 mM Tris-HCl buffer (pH 7.7) for ω1 and ω2, or the buffer II for ω3, and transferred to scintillation vials containing 10 ml liquid scintillation cocktail (ACS-II, Amersham, USA). After being allowed to stand for a specific period, retained radioactivity was counted by a liquid scintillation spectrometer. Specific binding of [^3H] ligands was calculated as the difference between amounts of radioactivity bound in the presence and absence of excess unlabeled ligands. The concentration of the test compounds causing 50% inhibition of specific binding of the [3H] ligand (IC50) was determined by probit analysis.

For series [2], the system named is mice (isoniazid-induced clonic convulsion). Nature of the series: Isoniazid-induced clonic convulsion test (anti-convulsant effect). The format is in vivo, mouse. Conditions: male Std-ddY mice, oral, 30 minutes before isoniazid 200 mg/kg s.c.; dose prolonging onset time by 25%. The text has this: Experiment 3: Isoniazid-induced Clonic Convulsion Test (Anti-convulsant Effect)
Isoniazid inhibits glutamate decarboxylase that catalyzes GABA biosynthesis, decrease brain GABA levels, and induces clonic convulsion. According to the method of Auta, J. et al. [cf., J. Pharmacol. Exp. Ther., 265, 649-656 (1993)] with slight modification, antagonistic effects of the test compounds on isoniazid-induced clonic convulsion were examined. […] Such drugs are BZ receptor agonists represented by diazepam, neurosteroids such as allopregnanolone, allotetrahydro-deoxycorticosterone (THDOC) and BZω3 receptor agonists, which enhance the synthesis of neurosteroids.
Male mice of Std-ddY strain weighing 22-24 g were used in a group of 6. Thirty minutes after oral administration of the test compounds, mice were injected with isoniazid (200 mg/kg) subcutaneously, and immediately thereafter, the mice were placed individually in plastic observation cages. The onset time of clonic convulsion was measured (cut-off time: 90 minutes). The latency in the control group was about 40 minutes.
Anti-isoniazid effect of the test compounds was expressed by the dose, which prolonged the onset time by 25% compared to that in the vehicle group (ED25). The ED25 value was calculated according to the Probit method.

The term IC50 denotes the point on the concentration scale where inhibition reaches its midpoint. What is called melting point is the temperature of the solid-liquid transition.

Regarding `CCN(C(=O)Cn1c(=O)n(C)c2nc(-c3ccccc3)ncc21)c1ccccc1` [Example 1, N-ethyl-8,9-dihydro-9-methyl-8-oxo-2-phenyl-N-phenyl-7H-purin-7-acetamide], the minimal effective dose in series [1] is 0.001 to 0.003 mg/kg. The lethality result with mice (lethality) is listed as “no lethality”. Also, the IC50 on BZω3 receptor was 2 nM.

In turn, `CCN(C(=O)Cn1c(=O)n(C)c2nc(-c3ccc(F)cc3)ncc21)c1ccccc1` [Example 12, N-ethyl-8,9-dihydro-2-(4-fluorophenyl)-9-methyl-8-oxo-N-phenyl-7H-purin-7-acetamide] gave a melting point of 211 to 212 °C. The minimal effective dose in series [1] came to 0.01 mg/kg. Besides, the concentration for half-maximal inhibition (IC50) on BZω3 receptor turned out to be 1.5 nM.

`CN(Cc1ccccc1)C(=O)Cn1c(=O)n(C)c2nc(-c3ccc(F)cc3)ncc21` [Example 50] came in with a melting point of 170 to 171 °C. The minimal effective dose in series [1] worked out at 0.1 mg/kg. For the same compound, at BZω3 receptor, the IC50 came out at 0.79 nM.

Consider `CCCN(CCC)C(=O)Cn1c(=O)n(C)c2cnc(-c3ccccc3)nc21` [Example 106, 7,8-dihydro-7-methyl-8-oxo-2-phenyl-N,N-dipropyl-9H-purin-9-acetamide], for which, in series [1], the minimal effective dose lay in the range of 0.001 to 0.003 mg/kg. The “Anti-convulsant effect ED25” value in series [2] came to 100 mg/kg. In addition, the IC50 at BZω3 receptor is 1.2 nM.

On to `CCCN(CCC)C(=O)Cn1c(=O)n(CC)c2cnc(-c3ccccc3)nc21` [Example 107, 7-ethyl-7,8-dihydro-8-oxo-2-phenyl-N,N-dipropyl-9H-purin-9-acetamide], for which the melting point fell in the range of 98 to 99 °C. In addition, the minimal effective dose in series [1] lay in the range of 0.001 to 0.003 mg/kg. In series [2], the “Anti-convulsant effect ED25” value was determined as 33.0 mg/kg. Moreover, the 50% inhibitory concentration (IC50) at BZω3 receptor came out at 0.66 nM.

Consider `CCCN(CCC)C(=O)Cn1c(=O)n(C)c2cnc(-c3ccc(Cl)cc3)nc21` [Example 112], for which the melting point lay in the range of 135 to 137 °C. Further, the “Anti-convulsant effect ED25” value in series [2] amounted to 73.6 mg/kg. For the same compound, at BZω3 receptor, the IC50 is 0.73 nM.

Turning to `CCCN(CCC)C(=O)Cn1c(=O)n(CC)c2cnc(-c3ccc(Cl)cc3)nc21` [Example 116], the melting point lay in the range of 158 to 159 °C. Besides, the minimal effective dose in series [1] worked out at 0.01 mg/kg. Also, the half-maximal inhibitory concentration (IC50) at BZω3 receptor came out at 2.1 nM.

Compound `CN(Cc1ccccc1)C(=O)Cn1c(=O)n(C)c2cnc(-c3ccc(Cl)cc3)nc21` [Example 137, N-benzyl-7,8-dihydro-N-methyl-7-methyl-8-oxo-2-(4-chlorophenyl)-9H-purin-9-acetamide] yielded a melting point of 241 to 242 °C. For the same compound, the minimal effective dose in series [1] is 0.001 to 0.003 mg/kg. Besides, the IC50 on BZω3 receptor stood at 1.3 nM.

`CCN(Cc1ccccc1)C(=O)Cn1c(=O)n(C)c2cnc(-c3ccc(Cl)cc3)nc21` [Example 147, N-benzyl-N-ethyl-7,8-dihydro-7-methyl-8-oxo-2-(4-chlorophenyl)-9H-purin-9-acetamide] came in with a melting point of 172 to 173 °C. In series [1], the minimal effective dose fell in the range of 0.001 to 0.003 mg/kg. Moreover, the concentration for half-maximal inhibition (IC50) on BZω3 receptor amounted to 1.1 nM.

With `COc1ccc(N(C)C(=O)Cn2c(=O)n(C)c3cnc(-c4ccccc4)nc32)cc1` [Example 163], the melting point was 172 to 174 °C. Besides, in series [1], the minimal effective dose worked out at 0.1 mg/kg. In addition, at BZω3 receptor, the IC50 was determined as 0.73 nM.
